Values after ≈ are worked out from the molar mass of the structure shown.
Key:
MCF7 [1] = assay: Antiproliferative activity against human MCF7 cells; format: functional, cell-based
DU-145 = assay: Antiproliferative activity against human DU-145 cells; format: functional, cell-based
A549 [2] = assay: Cytotoxicity against human A549 cells assessed as reduction in cell growth incubated for 24 hrs by MTT assay; format: functional, cell-based; details: A549, 24 h
NCI-H460 = assay: Cytotoxicity against human NCI-H460 cells assessed as reduction in cell growth incubated for 24 hrs by MTT assay; format: functional, cell-based; details: NCI-H460, 24 h
[3] = target: T1, Vascular endothelial growth factor receptor 2 (Homo sapiens, UniProt P35968); assay: Inhibition of GST-tagged human recombinant VEGFR2 at 10 uM using Poly(4:1 Glu, Tyr) as substrate by Kinase-Glo Max reagent based luminescence analysis relative to control
T1 sequence (P35968 whole entry): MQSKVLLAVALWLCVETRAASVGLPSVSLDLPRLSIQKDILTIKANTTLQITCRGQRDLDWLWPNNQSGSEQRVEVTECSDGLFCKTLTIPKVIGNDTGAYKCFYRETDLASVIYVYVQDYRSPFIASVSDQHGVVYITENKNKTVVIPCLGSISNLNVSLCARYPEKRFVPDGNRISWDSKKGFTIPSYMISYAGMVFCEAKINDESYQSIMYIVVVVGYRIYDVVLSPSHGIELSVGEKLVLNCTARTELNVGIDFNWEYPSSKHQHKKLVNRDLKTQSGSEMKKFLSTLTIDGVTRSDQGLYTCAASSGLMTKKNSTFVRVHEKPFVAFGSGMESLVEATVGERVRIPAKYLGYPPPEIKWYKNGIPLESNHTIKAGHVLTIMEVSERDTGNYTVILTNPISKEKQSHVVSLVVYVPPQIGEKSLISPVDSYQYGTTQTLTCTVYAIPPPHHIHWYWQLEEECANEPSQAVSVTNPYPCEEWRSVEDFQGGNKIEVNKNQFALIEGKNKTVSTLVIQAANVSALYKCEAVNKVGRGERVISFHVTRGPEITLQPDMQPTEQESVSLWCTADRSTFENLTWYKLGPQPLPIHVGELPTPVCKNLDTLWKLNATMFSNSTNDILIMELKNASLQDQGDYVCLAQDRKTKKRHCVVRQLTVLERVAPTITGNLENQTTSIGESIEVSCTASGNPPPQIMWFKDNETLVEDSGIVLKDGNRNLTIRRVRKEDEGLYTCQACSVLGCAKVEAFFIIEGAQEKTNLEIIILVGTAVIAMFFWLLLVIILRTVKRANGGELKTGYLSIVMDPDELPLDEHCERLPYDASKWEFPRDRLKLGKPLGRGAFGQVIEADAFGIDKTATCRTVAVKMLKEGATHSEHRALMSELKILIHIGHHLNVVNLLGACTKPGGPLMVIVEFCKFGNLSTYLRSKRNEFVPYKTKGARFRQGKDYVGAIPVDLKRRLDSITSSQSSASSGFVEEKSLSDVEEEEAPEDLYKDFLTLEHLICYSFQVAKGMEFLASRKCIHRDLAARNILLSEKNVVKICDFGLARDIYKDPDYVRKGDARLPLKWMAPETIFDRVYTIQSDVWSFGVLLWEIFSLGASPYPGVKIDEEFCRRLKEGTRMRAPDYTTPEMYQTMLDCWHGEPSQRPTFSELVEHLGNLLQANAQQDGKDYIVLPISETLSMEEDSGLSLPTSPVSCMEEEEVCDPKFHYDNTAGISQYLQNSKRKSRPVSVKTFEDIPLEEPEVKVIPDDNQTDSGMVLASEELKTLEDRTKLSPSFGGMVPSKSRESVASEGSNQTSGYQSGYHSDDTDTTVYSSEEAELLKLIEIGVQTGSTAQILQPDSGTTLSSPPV

MCF7 [4] = assay: Cytotoxicity against human MCF7 cells assessed as reduction in cell viability incubated for 48 hrs by SRB assay; format: functional, cell-based; details: MCF7, 48 h
[5] = target: T1, Vascular endothelial growth factor receptor 2; assay: Inhibition of VEGFR2 in human MCF7 cells by horseradish peroxidase-coupled TMB substrate based ELISA; format: cell-based
MCF7 [6] = assay: Growth inhibition of human MCF7 cells; format: functional
UO-31 = assay: Antiproliferative activity against human UO-31 cells assessed as reduction in cell viability incubated for 48 hrs by MTT assay; format: functional, cell-based; details: UO-31, 48 h
SK-MEL-2 = assay: Inhibition of cell proliferation in human SK-MEL-2 cells at 0.3 uM relative to control; format: functional
NCI-H522 = assay: Inhibition of cell proliferation in human NCI-H522 cells at 0.3 uM relative to control; format: functional
MCF7 [7] = assay: cells; details: Homo sapiens, MCF7, 72 h
Description: Cytotoxicity against human MCF7 cells assessed as reduction in cell viability incubated for 72 hrs by MTT assay

[8] = target: T1, Vascular endothelial growth factor receptor 2; assay: Inhibition of VEGFR2 (unknown origin) using poly (Glu,Tyr) 4:1 as substrate measured after 1 hr in presence of ATP by ELISA method
HCT-116 [9] = assay: cells; details: Homo sapiens, HCT-116, 72 h
Description: Cytotoxicity against human HCT-116 cells assessed as reduction in cell viability incubated for 72 hrs by MTT assay

HepG2 [10] = assay: cells; details: Homo sapiens, HepG2, 72 h
Description: Cytotoxicity against human HepG2 cells assessed as reduction in cell viability incubated for 72 hrs by MTT assay

MCF7 [11] = assay: Antiproliferative activity against human MCF7 cells assessed as cell growth inhibition measured for 24 hrs by MTT assay; format: functional, cell-based; details: MCF7, 24 h
HepG2 [12] = assay: Antiproliferative activity against human HepG2 cells assessed as cell growth inhibition measured for 24 hrs by MTT assay; format: functional, cell-based; details: HepG2, 24 h
HCT-116 [13] = assay: Antiproliferative activity against human HCT-116 cells assessed as cell growth inhibition measured for 24 hrs by MTT assay; format: functional, cell-based; details: HCT-116, 24 h
HepG2 [14] = assay: Anticancer activity against human HepG2 cells assessed as reduction in cell viability measured after 72 hrs by MTT assay; format: functional, cell-based; details: HepG2, 72 h
MCF7 [15] = assay: Cytotoxicity against human MCF7 cells assessed as reduction in cell viability incubated for 48 hrs by MTT assay; format: functional, cell-based; details: MCF7, 48 h
A549 [16] = assay: Antiproliferative activity against human A549 cells assessed as reduction in cell growth incubated for 48 hrs by MTT assay; format: toxicity, cell-based; details: A549, 48 h
[17] = Antiproliferative activity against human HUVEC cells assessed as reduction in cell growth incubated for 48 hrs by MTT assay; format: toxicity, cell-based
[18] = target: T1, Vascular endothelial growth factor receptor 2; assay: Inhibition of VEGFR-2 (unknown origin) at 1 uM using Poly(4:1 Glu, Tyr) as substrate by Kinase-Glo Max reagent based luminescence analysis relative to control
NCI-H1975 = assay: Antiproliferative activity against human NCI-H1975 cells assessed as reduction in cell growth incubated for 48 hrs by MTT assay; format: toxicity, cell-based; details: NCI-H1975, 48 h
HeLa = assay: Antiproliferative activity against human HeLa cells assessed as reduction in cell growth incubated for 48 hrs by MTT assay; format: toxicity, cell-based
[19] = target: T1, Vascular endothelial growth factor receptor 2; assay: Inhibition of human VEGFR-2 by ELISA method
[20] = target: T1, Vascular endothelial growth factor receptor 2; assay: Inhibition of VEGFR-2 in human MCF7 cells by ELISA method; format: cell-based
HepG2 [21] = assay: Anticancer activity against human HepG2 cells; format: functional, cell-based
HCT-116 [22] = assay: Anticancer activity against human HCT-116 cells; format: functional, cell-based
[23] = target: T1, Vascular endothelial growth factor receptor 2; assay: Inhibition of VEGFR-2 (unknown origin)
MCF7 [24] = assay: Anticancer activity against human MCF7 cells; format: functional, cell-based
A549 [25] = assay: Antiproliferative activity against human A549 cells assessed as reduction in cell viability incubated for 48 hrs by MTT assay; format: functional, cell-based; details: A549, 48 h
HCT-116 [26] = assay: Antiproliferative activity against human HCT-116 cells assessed as reduction in cell viability incubated for 48 hrs by MTT assay; format: functional, cell-based; details: HCT-116, 48 h

Work on `COc1nc(C(=O)Nc2nc3cc(F)ccc3[nH]2)ccc1-n1cnc(C)c1` yielded an IC50 (MCF7 [1]) of 8.9 µM and an IC50 (DU-145) of 9.2 µM.

`Clc1ccc(/C=N/N=C(/c2ccccc2)c2ccc3nc(-c4ccc(Cl)cc4)[nH]c3c2)cc1` showed an IC50 (A549 [2]) of 1.88 µM, an IC50 (NCI-H460) of 0.85 µM and an inhibition [3] of 89.9%.

In the case of `COc1cc(-c2nc3ccccc3s2)ccc1OCC(=O)N/N=C/c1ccc(O)cc1`, the IC50 (MCF7 [4]) is reported as 7.83 µM and the IC50 [5] is reported as 0.19 µM.

For `COc1cc(-c2nc3ccccc3s2)ccc1OCC(=O)N/N=C/c1ccc([N+](=O)[O-])cc1`, the IC50 (MCF7 [4]) was 28.4 µM and the IC50 [5] was 0.18 µM.

With `Cc1ccc2[nH]c(-c3ccc(C(=O)N/N=C/c4ccc(Cl)cc4Cl)cc3)nc2c1` the GI (MCF7 [6]) was 30.51 µM.

In the case of `COc1cc(C2OC(CCC(=O)c3nc4cc([N+](=O)[O-])ccc4[nH]3)=NN2C(C)=O)cc(OC)c1OC` (stereo not given), the IC50 (UO-31) is reported as 19.1 µM, the inhibition at 0.3 µM (SK-MEL-2) is reported as 42.6% and the inhibition at 0.3 µM (NCI-H522) is reported as 48.7%.

`O=C(CCSc1nc2ccccc2o1)Nc1ccc(S(=O)(=O)NC(=O)NC2CCCCC2)cc1` gave an IC50 (MCF7 [7]) of 8.93 µM, an IC50 [8] of 0.08 µM and an IC50 (HCT-116 [9]) of 7.14 µM. It also gave an IC50 (HepG2 [10]) of 5.93 µM.

`COc1cc(/C=N/NC(=O)COc2ccc(-c3nc4ccccc4s3)cc2OC)ccc1O` showed an IC50 (MCF7 [4]) of 6.58 µM and an IC50 [5] of 0.17 µM.

Work on `COc1ccccc1NC(=O)c1ccc(NC(=O)CSc2nc3ccccc3o2)cc1` yielded an IC50 (MCF7 [11]) of 4 µM and an IC50 (HepG2 [12]) of 3.95 µM.

For `COc1cc(/C=N/NC(=O)c2ccc(-c3nc4cc(C)ccc4[nH]3)cc2)cc(OC)c1OC`, the GI (MCF7 [6]) was 84.33 µM.

`O=C(CSc1nc2ccccc2o1)Nc1ccc(C(=O)NC2CCCCC2)cc1` showed an IC50 (MCF7 [11]) of 7.2 µM and an IC50 (HCT-116 [13]) of 7.8 µM.

Work on `COc1ccc(-c2nn(-c3ccccc3)cc2/C=C2/S/C(=N\N=C(/C)c3nc4ccccc4[nH]3)N(c3ccc(Cl)cc3)C2=O)cc1` yielded an IC50 (HepG2 [14]) of 11 µg/mL (≈ 17.1 µM) and an IC50 (MCF7 [15]) of 5.84 µM.

Work on `O=C(CSc1nc2ccccc2o1)Nc1ccc(C(=O)Nc2ccc([N+](=O)[O-])cc2)cc1` yielded an IC50 (MCF7 [11]) of 3.43 µM, an IC50 (HCT-116 [13]) of 2.79 µM and an IC50 (HepG2 [12]) of 2.43 µM.

With `Cc1ccc2oc(SCC(=O)Nc3ccc(C(=O)Nc4cccc(Cl)c4)cc3)nc2c1` the IC50 (MCF7 [11]) was 15.2 µM and the IC50 (HepG2 [12]) was 10.5 µM.

Work on `Cc1ccc2oc(SCCC(=O)Nc3nnc(-c4ccccc4)s3)nc2c1` yielded an IC50 (MCF7 [7]) of 7.36 µM, an IC50 (HCT-116 [9]) of 5.76 µM and an IC50 (HepG2 [10]) of 9.45 µM.

`O=C(Nc1ccc(OC(F)(F)F)cc1)Nc1ccc2oc(-c3ccccc3Cl)nc2c1` showed an IC50 (A549 [16]) of 7.61 µM, an IC50 at 48 h [17] of 8.46 µM and an inhibition [18] of 98.6%. It also gave an IC50 (NCI-H1975) of 1.4 µM and an IC50 (HeLa) of 0.28 µM.

In the case of `O=C(Nc1ccc([N+](=O)[O-])cc1)Nc1cccc(-c2nc3ccccc3[nH]2)c1`, the IC50 [19] is reported as 0.0067 µM, the IC50 [20] is reported as 0.0068 µM and the IC50 (MCF7 [15]) is reported as 7.18 µM.

Compound `O=C(CN1C(=O)S/C(=C\c2ccc(F)cc2)C1=O)Nc1nc2ccc([N+](=O)[O-])cc2s1` has an IC50 (HepG2 [21]) of 7.92 µM, an IC50 (HCT-116 [22]) of 5.61 µM and an IC50 [23] of 0.091 µM. For the same compound, the IC50 (MCF7 [24]) was 3.84 µM.

With `O=C(CCc1nnc2sc(-c3ccc(Br)cc3)nn12)c1nc2cc([N+](=O)[O-])ccc2[nH]1` the IC50 (A549 [25]) was 6.17 µM and the IC50 (HCT-116 [26]) was 9.03 µM.

Work on `O=C(CCc1nnc2sc(CCc3ccccc3)nn12)c1nc2cc([N+](=O)[O-])ccc2[nH]1` yielded an IC50 (A549 [25]) of 11 µM and an IC50 (HCT-116 [26]) of 2.19 µM.
